This note sets out measurements from patent US12061186B2, “Compositions and methods for using cross-dressing to enhance anti-tumor immune responses” (Massachusetts Institute of Technology, priority 2020, dated 2024).

This assay concerns MC38-SIY tumor cells. Kind of assay: IFNγ-ELISpot of splenocytes from mice implanted with PRR agonist-coated tumor cells. In kind it is in vivo. The procedure:
Tumor cell lines were cultured at 37° C. and 5% CO2 in DMEM (Gibco) supplemented with 10% FBS (Atlanta Biologicals), 1% penicillin/streptomycin (Gibco), and 1×HEPES (Gibco). Tumor cells were harvested by trypsinization (Gibco) and washed 3 times with PBS (Gibco). Cells were resuspended in PBS, and 2×10^6 tumor cells were injected subcutaneously into the flanks of mice. For experiments with pattern recognition receptor (PRR) agonist coating, 2×10^6 tumor cells were resuspended with 50 μg naked Poly(I:C) HMW (InvivoGen), DMXAA (InvivoGen), or Pam2CSK4 (InvivoGen) in PBS and injected subcutaneously into the flanks of mice. All PRR agonists were added to cells without a transfection reagent. For experiments with fixed tumor cells, the cells were fixed with 4% paraformaldehyde (Electron Microscopy Sciences) for 10 minutes at RT, washed twice and resuspended with PBS, and 2×10^6 tumor cells were injected subcutaneously into the flanks of mice. Tumor area measurements (calculated as length×width) were collected 2-3 times a week until the endpoint of the study. Data not shown but available upon request—Details on experimental cohorts, the raw data, as well as the power calculations for all tumor outgrowth experiments.
ELISpot plates (EMD Millipore) were coated overnight at 4° C. with anti-IFNγ (BD Biosciences). Plates were washed and blocked with DMEM supplemented with 10% FBS, 1% penicillin/streptomycin, and 1×HEPES for 2 hours at room temperature (RT). Spleens were harvested from mice at day 5 or day 7 post-tumor inoculation and mashed through a 70 μm filter with a 1 mL syringe plunger to generate a single cell suspension. Red blood cells were lysed with 500 μL of ACK Lysing Buffer (Gibco) on ice for 2 minutes. Splenocytes were washed 3 times with chilled PBS and 1×10^6 cells were assayed per well in the presence or absence of 160 nM SIY peptide or 100 ng/mL PMA (Sigma-Aldrich) and 1 μg/mL ionomycin (Sigma-Aldrich) as a positive control. Plates were developed the next day using the BD mouse IFNγ-ELISpot kit, following manufacturer's protocol.

Consider “polyinosinic-polycytidylic acid [Poly(I:C)]”, for which the “induction of antigen-specific T cell responses (IFNγ-ELISpot)” value (Poly(I:C)-coated 4% PFA-fixed MC38-SIY tumor cells) is listed as “failed to induce any antigen-specific T cell responses”. For the setting “Poly(I:C)-coated MC38-SIY tumor cells implanted in Batf3−/− mice, day 7 post-tumor inoculation, 50 μg per 2×10^6 cells”, the “antigen-specific T cell responses restored, as share of the priming responses observed in WT mice (IFNγ-ELISpot)” value came to 45.0%. Further, the “restoration of T cell responses (IFNγ-ELISpot)” value (Poly(I:C)-coated MHC class I-deficient (β2M−/−) MC38-SIY tumor cells, Batf3−/− mice) is reported as “no restoration”.
